Data: ChEMBL document CHEMBL5126578, “Organocatalyzed umpolung addition for synthesis of heterocyclic-fused arylidene-imidazolones as anticancer agents” (Bioorg Med Chem, 2022)
Each block holds one compound with its values, some of them ahead of it. Activity calls are given as the source filed them. The rule behind the calls is not given here.

How the values were obtained:
MCF7 [1] = assay: Antiproliferative activity against human MCF7 cells assessed as reduction in cell viability incubated for 48 hrs by MTT assay; type: functional, cell-based; conditions: MCF7, 48 h
MDA-MB-231 [2] = assay: Antiproliferative activity against human MDA-MB-231 cells assessed as reduction in cell viability for 48 hrs by MTT assay; type: functional, cell-based; conditions: MDA-MB-231, 48 h
HEK-293T = assay: Antiproliferative activity against human HEK293T cells assessed as reduction in cell viability for 48 hrs by MTT assay; type: functional, cell-based
[3] = Antiproliferative activity against human H357 cells assessed as reduction in cell viability for 48 hrs by MTT assay; type: functional, cell-based; conditions: H357, 48 h
[4] = Cytotoxicity against human MCF-10A cells assessed as reduction in cell viability for 48 hrs by MTT assay; type: toxicity, cell-based
MCF7 [5] = assay: Induction of apoptosis in human MCF7 cells assessed as increase in number of apoptotic nuclei at 4.2 to 5.5 uM for 48 hrs by DAPI staining based fluorescence microscopy; type: functional, cell-based; conditions: dose 4.2-5.5 µM
MCF7 [6] = assay: Induction of cell cycle arrest in human MCF7 cells assessed as accumulation at Sub-G1 phase at 4.2 uM for 48 hrs by PI staining based flow cytometry (Rvb= 0.9%); type: functional
MCF7 [7] = assay: Induction of cell cycle arrest in human MCF7 cells assessed as accumulation at G1 phase at 4.2 uM for 48 hrs by PI staining based flow cytometry (Rvb= 73.1%); type: functional
MCF7 [8] = assay: Induction of cell cycle arrest in human MCF7 cells assessed as accumulation at S phase at 4.2 uM for 48 hrs by PI staining based flow cytometry(Rvb= 4.6%); type: functional
MCF7 [9] = assay: Induction of cell cycle arrest in human MCF7 cells assessed as accumulation at G2/M phase at 4.2 uM for 48 hrs by PI staining based flow cytometry (Rvb= 21.4%); type: functional
MCF7 [10] = assay: Induction of apoptosis in human MCF7 cells assessed as fold change as decrease in BCL-XL protein expression level at 4.2 uM by Western blot analysis; type: functional
MCF7 [11] = assay: Induction of apoptosis in human MCF7 cells assessed as fold change as increase in Bax protein expression level at 4.2 uM by Western blot analysis; type: functional
MCF7 [12] = assay: Induction of apoptosis in human MCF7 cells assessed as fold change as decrease in BCL-XL protein expression level at 5.5 uM by Western blot analysis; type: functional
MCF7 [13] = assay: Induction of apoptosis in human MCF7 cells assessed as fold change as increase in Bax protein expression level at 5.5 uM by Western blot analysis; type: functional
MCF7 [14] = assay: Induction of apoptosis in human MCF7 cells assessed as upregulation of Caspase-3 expression level at 4.2 to 5.5 uM by TRIT-C staining based fluorescence microscopy; type: functional, cell-based; conditions: dose 4.2-5.5 µM
MCF7 [15] = assay: Inhibition of human DNA topoisomerase activity in human MCF cells nuclear lysate assessed mediated supercoiled plasmid DNA relaxation by analyzing migration of supercoiled DNA at 0.9 uM by agarose gel electrophoresis; type: subcellular
[16] = Antiproliferative activity against VEGF-stimulated human Endothelial cells pre-incubated for 2 hrs followed by stimulation with human VEGF, bFGF and FBS for 18 hrs and measured after 28 hrs by AlamarBlue assay; type: functional, cell-based; conditions: Endothelial cell
MCF7 [17] = assay: Inhibition of human DNA topoisomerase activity in human MCF cells nuclear lysate assessed mediated supercoiled plasmid DNA relaxation by analyzing migration of supercoiled DNA at 0.5 uM by agarose gel electrophoresis; type: subcellular
MCF7 [18] = assay: Induction of apoptosis in human MCF7 cells assessed as increase in number of apoptotic nuclei at 3.8 to 5 uM for 48 hrs by DAPI staining based fluorescence microscopy; type: functional, cell-based; conditions: dose 3.8-5 µM
MCF7 [19] = assay: Induction of cell cycle arrest in human MCF7 cells assessed as accumulation at Sub-G1 phase at 3.8 uM for 48 hrs by PI staining based flow cytometry (Rvb= 0.9%); type: functional
MCF7 [20] = assay: Induction of cell cycle arrest in human MCF7 cells assessed as accumulation at G1 phase at 3.8 uM for 48 hrs by PI staining based flow cytometry (Rvb= 73.1%); type: functional
MCF7 [21] = assay: Induction of cell cycle arrest in human MCF7 cells assessed as accumulation at S phase at 3.8 uM for 48 hrs by PI staining based flow cytometry (Rvb=4.6%); type: functional
MCF7 [22] = assay: Induction of cell cycle arrest in human MCF7 cells assessed as accumulation at G2/M phase at 3.8 uM for 48 hrs by PI staining based flow cytometry (Rvb= 21.4%); type: functional
MCF7 [23] = assay: Induction of apoptosis in human MCF7 cells assessed as fold change as decrease in BCL-XL protein expression level at 3.8 uM by Western blot analysis; type: functional
MCF7 [24] = assay: Induction of apoptosis in human MCF7 cells assessed as fold change as increase in Bax protein expression level at 3.8 uM by Western blot analysis; type: functional
MCF7 [25] = assay: Induction of apoptosis in human MCF7 cells assessed as fold change as decrease in BCL-XL protein expression level at 5 uM by Western blot analysis; type: functional
MCF7 [26] = assay: Induction of apoptosis in human MCF7 cells assessed as fold change as increase in Bax protein expression level at 5 uM by Western blot analysis; type: functional
MCF7 [27] = assay: Induction of apoptosis in human MCF7 cells assessed as upregulation of Caspase-3 expression level at 3.8 to 5 uM by TRIT-C staining based fluorescence microscopy; type: functional, cell-based; conditions: dose 3.8-5 µM
MCF7 [28] = assay: Inhibition of human DNA topoisomerase activity in human MCF cells nuclear lysate assessed mediated supercoiled plasmid DNA relaxation by analyzing migration of supercoiled DNA at 1 uM by agarose gel electrophoresis; type: subcellular
MDA-MB-231 [29] = assay: Antiproliferative activity against human MDA-MB-231 cells for 48 hrs by MTT assay; type: functional, cell-based; conditions: MDA-MB-231, 48 h
HeLa = assay: Antiproliferative activity against human HeLa cells for 24 hrs by MTT assay; type: functional, cell-based
[30] = target: Epidermal growth factor receptor (Homo sapiens, UniProt P00533); assay: Inhibition of EGFR (unknown origin) assessed as kinase activity by measuring ATP remaining for 40 mins in presence of ATP by Kinase-Glo Plus luminescence kinase assay
Sequence of Epidermal growth factor receptor (P00533 whole entry): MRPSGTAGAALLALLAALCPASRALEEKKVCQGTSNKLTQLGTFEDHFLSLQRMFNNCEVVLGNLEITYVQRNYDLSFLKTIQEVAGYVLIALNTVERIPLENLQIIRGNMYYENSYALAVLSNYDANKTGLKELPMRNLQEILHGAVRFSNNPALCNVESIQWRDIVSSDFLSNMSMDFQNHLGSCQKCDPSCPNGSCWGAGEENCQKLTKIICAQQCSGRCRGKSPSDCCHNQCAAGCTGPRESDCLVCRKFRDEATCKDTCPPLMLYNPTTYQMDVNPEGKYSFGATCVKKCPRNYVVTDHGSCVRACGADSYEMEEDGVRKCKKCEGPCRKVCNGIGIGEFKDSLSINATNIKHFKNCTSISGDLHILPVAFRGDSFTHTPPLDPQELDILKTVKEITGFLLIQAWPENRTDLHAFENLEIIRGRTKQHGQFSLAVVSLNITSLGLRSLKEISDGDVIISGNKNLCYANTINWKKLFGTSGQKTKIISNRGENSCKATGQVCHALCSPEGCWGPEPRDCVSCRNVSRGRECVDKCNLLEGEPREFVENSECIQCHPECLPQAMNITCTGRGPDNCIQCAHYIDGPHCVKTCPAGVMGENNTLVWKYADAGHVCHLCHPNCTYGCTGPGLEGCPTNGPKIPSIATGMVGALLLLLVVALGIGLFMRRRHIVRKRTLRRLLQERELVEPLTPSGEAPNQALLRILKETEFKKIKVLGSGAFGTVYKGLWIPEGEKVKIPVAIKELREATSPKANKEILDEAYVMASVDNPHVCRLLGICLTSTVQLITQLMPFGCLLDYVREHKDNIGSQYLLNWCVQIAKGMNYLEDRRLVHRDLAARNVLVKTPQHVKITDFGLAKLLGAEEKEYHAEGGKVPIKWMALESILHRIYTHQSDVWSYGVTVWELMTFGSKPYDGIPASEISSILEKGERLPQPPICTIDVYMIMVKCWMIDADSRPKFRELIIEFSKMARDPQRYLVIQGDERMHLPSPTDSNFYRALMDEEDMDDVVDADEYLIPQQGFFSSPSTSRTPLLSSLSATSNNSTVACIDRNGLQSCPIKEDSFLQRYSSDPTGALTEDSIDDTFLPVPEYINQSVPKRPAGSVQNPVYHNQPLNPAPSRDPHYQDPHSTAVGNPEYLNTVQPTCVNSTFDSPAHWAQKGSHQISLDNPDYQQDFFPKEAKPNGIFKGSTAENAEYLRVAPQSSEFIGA

SMILES: O=C1/C(=C/c2ccccc2)N=C2Sc3ccccc3N12
IC50 (MCF7 [1]): 9.4 µM

SMILES: O=C1/C(=C/c2ccc(Cl)cc2)N=C2Sc3cccc(O)c3N12
IC50 (MCF7 [1]): 4.2 µM | IC50 (MDA-MB-231 [2]): 5.4 µM | IC50 (HEK-293T): 5.8 µM | IC50 [3]: 5 µM | IC50 at 48 h [4]: 40 µM | Activity (MCF7 [5]): Active | Activity (MCF7 [6]): 4.3% | Activity (MCF7 [7]): 61.3% | Activity (MCF7 [8]): 24.8% | Activity (MCF7 [9]): 9.6% | fold change (FC) (MCF7 [10]): 2.5 | fold change (FC) (MCF7 [11]): 3.5 | fold change (FC) (MCF7 [12]): 10 | fold change (FC) (MCF7 [13]): 6 | Activity (MCF7 [14]): Active | inhibition (MCF7 [15]): Active

SMILES: CCN(CC)CCOc1cccc(-c2cn3c(n2)sc2ccccc23)c1
IC50 [16]: 0.0039 µM

SMILES: O=C1/C(=C/c2ccccc2)N=C2C(O)=CC=CN12
IC50 (MCF7 [1]): 9.7 µM

SMILES: O=C1/C(=C/c2ccccc2)N=C2C([N+](=O)[O-])=CC(Br)=CN12
IC50 (MCF7 [1]): 10 µM

SMILES: COc1cc([C@@H]2c3cc4c(cc3[C@@H](O[C@@H]3O[C@@H]5CO[C@@H](C)O[C@H]5[C@H](O)[C@H]3O)[C@H]3COC(=O)[C@H]23)OCO4)cc(OC)c1O [ETOPOSIDE]
IC50 (HEK-293T): 28 µM | IC50 [3]: 32 µM | IC50 at 48 h [4]: 102 µM | inhibition (MCF7 [17]): Active

SMILES: O=C1/C(=C/c2ccccc2)N=C2Sc3cccc(O)c3N12
IC50 (MCF7 [1]): 3.8 µM | IC50 (MDA-MB-231 [2]): 4 µM | IC50 (HEK-293T): 4.2 µM | IC50 [3]: 4.8 µM | IC50 at 48 h [4]: 35 µM | Activity (MCF7 [18]): Active | Activity (MCF7 [19]): 8.9% | Activity (MCF7 [20]): 37.5% | Activity (MCF7 [21]): 36.4% | Activity (MCF7 [22]): 17.2% | fold change (FC) (MCF7 [23]): 2 | fold change (FC) (MCF7 [24]): 2 | fold change (FC) (MCF7 [25]): 10 | fold change (FC) (MCF7 [26]): 5 | Activity (MCF7 [27]): Active | inhibition (MCF7 [28]): Active

SMILES: O=C1/C(=C/c2ccc(Cl)cc2)N=C2C(O)=CC=CN12
IC50 (MCF7 [1]): 5.2 µM

SMILES: COc1ccc2c(c1)sc1nc(/C=C/C(=O)c3ccc(OC)c(O)c3)cn12
IC50 (MDA-MB-231 [29]): 1.2 µM

SMILES: O=C1/C(=C/c2ccccc2)N=C2Sc3cc(Br)ccc3N12
IC50 (MCF7 [1]): 9.7 µM

SMILES: O=C1/C(=C/c2ccccc2)N=C2C(Br)=CC(Br)=CN12
IC50 (MCF7 [1]): 10 µM

SMILES: O=C(Cc1csc2nc3ccccc3n12)Nc1cccc2ccccc12
IC50 (HeLa): 0.42 µM | IC50 [30]: 55 µM

SMILES: O=C(Cc1csc2nc3ccccc3n12)Nc1cccc(O)c1
IC50 (HeLa): 0.42 µM | IC50 [30]: 55 µM

SMILES: Cc1cccc2c1N1C(=O)/C(=C/c3ccccc3)N=C1S2
IC50 (MCF7 [1]): 9.8 µM

SMILES: O=C1/C(=C/c2ccccc2)N=C2C=CC([N+](=O)[O-])=CN12
IC50 (MCF7 [1]): 9 µM

SMILES: O=C1/C(=C/c2ccccc2)N=C2N=CC=CN12
IC50 (MCF7 [1]): 9.9 µM

Results, then the compound that gave them:

IC50 (MCF7 [1]): 7.5 µM
SMILES: COc1ccc(/C=C2\N=C3Sc4cccc(O)c4N3C2=O)cc1

IC50 (MCF7 [1]): 7.8 µM
SMILES: COc1ccc(/C=C2\N=C3Sc4cccc(OC)c4N3C2=O)cc1

IC50 (MCF7 [1]): 10 µM
SMILES: COc1ccc2c(c1)SC1=N/C(=C\c3ccccc3)C(=O)N12

IC50 (MCF7 [1]): 9.8 µM
SMILES: COC1=CC2=N/C(=C\c3ccc(OC)cc3)C(=O)N2C=C1

IC50 (MCF7 [1]): 10 µM
SMILES: COC1=CC2=N/C(=C\c3cc(OC)c(OC)c(OC)c3)C(=O)N2C=C1

IC50 (MCF7 [1]): 9.8 µM
SMILES: O=C1/C(=C/c2ccccc2)N=C2C=CC=CN12

IC50 (MCF7 [1]): 8.9 µM
SMILES: CCOC(=O)Oc1c(OC)cc(/C=C2\N=C3C=C(OC)C=CN3C2=O)cc1OC

IC50 (MCF7 [1]): 4.5 µM
SMILES: COc1cccc2c1N1C(=O)/C(=C/c3ccccc3)N=C1S2

IC50 (MCF7 [1]): 9.2 µM
SMILES: O=C1/C(=C/c2ccccc2)N=C2C=C(O)C=CN12

IC50 (MCF7 [1]): 9.9 µM
SMILES: COC1=CC2=N/C(=C\c3ccccc3)C(=O)N2C=C1

IC50 (MCF7 [1]): 9.8 µM
SMILES: CC1=CC=CN2C(=O)/C(=C/c3ccccc3)N=C12

IC50 (MCF7 [1]): 10 µM
SMILES: COc1ccc(/C=C2\N=C3C(O)=CC=CN3C2=O)cc1

IC50 (MCF7 [1]): 10 µM
SMILES: CC1=CN2C(=O)/C(=C/c3ccccc3)N=C2C=C1

IC50 (MCF7 [1]): 9.7 µM
SMILES: COC1=CC(OC)=NC2=N/C(=C\c3ccccc3)C(=O)N12
